Reference: ChEMBL document CHEMBL1138792, “Successful virtual screening for a submicromolar antagonist of the neurokinin-1 receptor based on a ligand-supported homology model” (J Med Chem, 2004)

Target: Substance-P receptor (Homo sapiens, UniProt P25103)
Test: Inhibition of substance P binding to Tachykinin receptor 1 in Chinese hamster ovary cells
Type: cell-based
Conditions: not given

Chain of Substance-P receptor (P25103 whole entry): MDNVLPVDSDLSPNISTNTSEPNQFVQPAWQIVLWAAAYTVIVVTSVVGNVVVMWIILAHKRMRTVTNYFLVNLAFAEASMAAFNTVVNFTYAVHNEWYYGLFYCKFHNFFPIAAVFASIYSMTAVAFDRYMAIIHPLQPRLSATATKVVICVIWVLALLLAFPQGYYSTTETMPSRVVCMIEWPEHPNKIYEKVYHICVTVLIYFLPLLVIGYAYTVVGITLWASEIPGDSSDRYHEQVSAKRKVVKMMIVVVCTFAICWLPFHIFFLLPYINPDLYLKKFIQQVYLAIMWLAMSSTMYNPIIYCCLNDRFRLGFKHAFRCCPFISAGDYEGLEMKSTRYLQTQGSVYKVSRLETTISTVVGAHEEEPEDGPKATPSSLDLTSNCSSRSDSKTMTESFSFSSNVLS

Row | SMILES | IC50 [nM]
1 | NC(COCc1ccccc1)C(c1ccccc1)c1ccccc1 (centres undefined) | 400
2 | Cc1cc(C)cc(COC(=O)[C@H](N)Cc2c[nH]c3ccccc23)c1 | 1530
3 | N[C@H](Cc1c[nH]c2ccccc12)C(=O)OCc1ccccc1 | > 10000

Continued, values first:

Row | IC50 [nM] | SMILES
4 | 1 | FC(F)(F)c1cc(COCC2(c3ccccc3)CCNCC2)cc(C(F)(F)F)c1
5 | 67 | CC(=O)NC(Cc1c[nH]c2ccccc12)C(=O)OCc1cc(C)cc(C)c1 (centres undefined)
6 | 0.06 | COc1ccc(-n2cnnn2)cc1CN[C@H]1CCCN[C@H]1c1ccccc1
7 | 250 | O=C(CSc1nnc(-c2ccncc2)n1-c1ccccc1)Nc1cccc(Cl)c1
8 | 0.53 | NC(=O)CNC(COCc1cc(C(F)(F)F)cc(C(F)(F)F)c1)C(c1ccccc1)c1ccccc1 (stereo in doubt; 5)

Same assay, conditions: ovary

Row | IC50 [nM] | SMILES
9 | 0.53 | NC(=O)CNC(COCc1cc(C(F)(F)F)cc(C(F)(F)F)c1)C(c1ccccc1)c1ccccc1 (stereo in doubt; 16)
